What was measured:
[1] = test system: Septoria tritici; test: Growth inhibition in nutrient broth, Septoria tritici (leaf blotch), photometric; format: cell-based; conditions: Zymoseptoria tritici, PDB broth, 24 C, 72 hrs, read-out: control of fungal infection, Septoria tritici
[2] = test system: Erysiphe graminis f.sp. tritici; test: Leaf disk assay, Erysiphe graminis f.sp. tritici (wheat powdery mildew), preventive; format: in vivo; conditions: Blumeria graminis, foliar, 96 h, wheat leaf segments, assessed four days after inoculation, read-out: control of fungal infection, Erysiphe graminis f.sp. tritici
Method: The compounds were tested in a leaf disk assay, with methods described below. The test compounds were dissolved in DMSO and diluted into water to 200 ppm. In the case of the test on Pythium ultimum, they were dissolved in DMSO and diluted into water to 20 […] graminis f.sp. tritici (wheat powdery mildew): Wheat leaf segments were placed on agar in a 24-well plate and sprayed with a solution of the test compound. After allowing to dry completely, for between 12 and 24 hours, the leaf disks were inoculated with a spore suspension of the fungus. After appropriate incubation the activity of a compound was assessed four days after inoculation as preventive fungicidal activity.

[3] = test system: Phytophthora infestans; test: whole plant or invertebrate; format: in vivo; conditions: in Solanum lycopersicum, foliar, 96 h, read-out: control of fungal infection, Phytophthora infestans
[4] = test system: Plasmopara viticola; test: Leaf disk assay, Plasmopara viticola (downy mildew of grapevine), preventive; format: in vivo; conditions: foliar, 168 h, grapevine leaf disks, assessed seven days after inoculation, read-out: control of fungal infection, Plasmopara viticola
[5] = test system: Pythium ultimum; test: Growth inhibition in potato dextrose broth, Pythium ultimum (damping off), photometric; format: cell-based; conditions: Globisporangium ultimum, 24° C., 48 hours, read-out: control of fungal infection, Pythium ultimum
Method: The compounds were tested in a leaf disk assay, with methods described below. The test compounds were dissolved in DMSO and diluted into water to 200 ppm. In the case of the test on Pythium ultimum, they were dissolved in DMSO and diluted into water to 20 ppm. Pythium ultimum (Damping off): Mycelial fragments of the fungus, prepared from a fresh liquid culture, were mixed into potato dextrose broth. A solution of the test compound in dimethyl sulphoxide was diluted with water to 20 ppm then placed into a 96-well microtiter plate and the nutrient broth containing the fungal spores was added. The test plate was incubated at 24° C. and the inhibition of growth was determined photometrically after 48 hours.

## COCC(C)(C#N)NC(=O)C(Oc1cc2cc(C#C[Si](C)(C)C)cnc2cc1F)SC (stereo not shown) [Example 5]
[1]
  inhibition of growth at 60 ppm: ≥ 60%
[2]
  pest or weed control at 200 ppm: ≥ 60%
[3]
  pest or weed control at 200 ppm: ≥ 60%
[4]
  pest or weed control at 200 ppm: ≥ 60%

## COCC#Cc1cnc2c(C)cc(OC(SC)C(=O)NC(C)(C)C)cc2c1 (stereo not shown) [Example 32]
[1]
  inhibition of growth at 60 ppm: ≥ 60%

## CC#CC(C)(C)NC(=O)C(Oc1cc(C)c2ncc(C#CCOC)cc2c1)SC (stereo not shown) [Example 35]
[1]
  inhibition of growth at 60 ppm: ≥ 60%
[4]
  pest or weed control at 200 ppm: ≥ 60%

## C#CC(C)(C)NC(=O)C(Oc1cc(C)c2ncc(C#CCOC)cc2c1)SC (stereo not shown) [Example 36]
[1]
  inhibition of growth at 60 ppm: ≥ 60%
[5]
  inhibition of growth at 20 ppm: ≥ 60%

## CC#Cc1cnc2c(C)cc(OC(SC)C(=O)NC(C)(C)C)cc2c1 (stereo not shown) [Example 37]
[1]
  inhibition of growth at 60 ppm: ≥ 60%

## CC#Cc1cnc2c(C)cc(OC(SC)C(=O)NC(C)(C)C#CCOC)cc2c1 (stereo not shown) [Example 39]
[1]
  inhibition of growth at 60 ppm: ≥ 60%
[3]
  pest or weed control at 200 ppm: ≥ 60%
[4]
  pest or weed control at 200 ppm: ≥ 60%

## CC#Cc1cnc2c(C)cc(OC(SC)C(=O)NC(C)(C)C#CC)cc2c1 (stereo not shown) [Example 40]
[1]
  inhibition of growth at 60 ppm: ≥ 60%

## C#CC(C)(C)NC(=O)C(Oc1cc(C)c2ncc(C#CC)cc2c1)SC (stereo not shown) [Example 41]
[1]
  inhibition of growth at 60 ppm: ≥ 60%

## COCC(C)(C#N)NC(=O)C(Oc1ccc2ncc(C#CCO)cc2c1)SC (stereo not shown) [Example 52]
[3]
  pest or weed control at 200 ppm: ≥ 60%
[5]
  inhibition of growth at 20 ppm: ≥ 60%

## COCC#CC(C)(C)NC(=O)C(Oc1cc2cc(C#C[Si](C)(C)C)cnc2cc1F)SC (stereo not shown) [Example 58]
[1]
  inhibition of growth at 60 ppm: ≥ 60%
[2]
  pest or weed control at 200 ppm: ≥ 60%

## CSCC(C)(C#N)NC(=O)C(Oc1ccc2ncc(C#C[Si](C)(C)C)cc2c1)SC (stereo not shown) [Example 59]
[1]
  inhibition of growth at 60 ppm: ≥ 60%
[3]
  pest or weed control at 200 ppm: ≥ 60%

## COCOCC(C)(C)NC(=O)C(Oc1cc(C)c2ncc(C#C[Si](C)(C)C)cc2c1)SC (stereo not shown) [Example 60]
[1]
  inhibition of growth at 60 ppm: ≥ 60%

## COC(Oc1ccc2ncc(C#C[Si](C)(C)C)cc2c1)C(=O)NC(C)(C)C (stereo not shown) [Example 80]
[1]
  inhibition of growth at 60 ppm: ≥ 60%
[2]
  pest or weed control at 200 ppm: ≥ 60%
[3]
  pest or weed control at 200 ppm: ≥ 60%
[4]
  pest or weed control at 200 ppm: ≥ 60%

## CCOCC(C)(C)NC(=O)C(Oc1cc(C)c2ncc(C#C[Si](C)(C)C)cc2c1)SC (stereo not shown) [Example 89]
[1]
  inhibition of growth at 60 ppm: ≥ 60%

## CCC(C)(C)NC(=O)C(Oc1ccc2ncc(C#C[Si](C)(C)C)cc2c1)SC (stereo not shown) [Example 91]
[1]
  inhibition of growth at 60 ppm: ≥ 60%
[2]
  pest or weed control at 200 ppm: ≥ 60%
[4]
  pest or weed control at 200 ppm: ≥ 60%

## C#Cc1cnc2ccc(OC(SC)C(=O)NC(C)(C#N)CF)cc2c1 (stereo not shown) [Example 92]
[5]
  inhibition of growth at 20 ppm: ≥ 60%

## CSC(Oc1cc2cc(C#C[Si](C)(C)C)cnc2cc1F)C(=O)NC(C)(C)C (stereo not shown) [Example 101]
[1]
  inhibition of growth at 60 ppm: ≥ 60%

## CCC#CC(C)(C)NC(=O)C(Oc1ccc2ncc(C#C[Si](C)(C)C)cc2c1)SC (stereo not shown) [Example 116]
[1]
  inhibition of growth at 60 ppm: ≥ 60%
[2]
  pest or weed control at 200 ppm: ≥ 60%
[3]
  pest or weed control at 200 ppm: ≥ 60%
[4]
  pest or weed control at 200 ppm: ≥ 60%

## CCC#CC(C)(C)NC(=O)C(Oc1cc(Cl)c2ncc(C#C[Si](C)(C)C)cc2c1)SC (stereo not shown) [Example 119]
[1]
  inhibition of growth at 60 ppm: ≥ 60%
[4]
  pest or weed control at 200 ppm: ≥ 60%

## CSC(Oc1cc(Cl)c2ncc(C#C[Si](C)(C)C)cc2c1)C(=O)NC(C)(C)C#CCCCCl (stereo not shown) [Example 120]
[1]
  inhibition of growth at 60 ppm: ≥ 60%

## C#Cc1cnc2ccc(OC(SC)C(=O)N(C)C3(CO)CCC3)cc2c1 (stereo not shown) [Example 154]
[5]
  inhibition of growth at 20 ppm: ≥ 60%

## C#Cc1cnc2c(F)c(F)c(OC(SC)C(=O)NC(C)(C#N)COC)cc2c1 (stereo not shown) [Example 216]
[1]
  inhibition of growth at 60 ppm: ≥ 60%
[2]
  pest or weed control at 200 ppm: ≥ 60%
[4]
  pest or weed control at 200 ppm: ≥ 60%

## CSC(Oc1cc2cc(C#C[Si](C)(C)C)cnc2c(F)c1F)C(=O)NC(C)(C)C (stereo not shown) [Example 217]
[1]
  inhibition of growth at 60 ppm: ≥ 60%

## C#Cc1cnc2ccc(OC(SC)C(=O)NC3(C)CSC3)cc2c1 (stereo not shown) [Example 224]
[1]
  inhibition of growth at 60 ppm: ≥ 60%
[5]
  inhibition of growth at 20 ppm: ≥ 60%

## COCC#CC(C)(C)NC(=O)C(Oc1cc(Cl)c2ncc(C#CCF)cc2c1)SC (stereo not shown) [Example 227]
[2]
  pest or weed control at 200 ppm: ≥ 60%
[3]
  pest or weed control at 200 ppm: ≥ 60%
[4]
  pest or weed control at 200 ppm: ≥ 60%
